Source: US5847074A, “Phospholipase C-inhibiting peptides” (Kyowa Hakko Kogyo Co., Ltd., priority 1993, dated 1998)
Values after ≈ are worked out from the molar mass of the structure shown. Where a SMILES comes first, the peptide text is derived from it. Bridges are numbered along the chain shown (N, C = ends). The star is where a group is joined. Octanoyl = CCCCCCCC(=O)*

Assays:
[1] = biological target: T1, PLC-γ1 (Bos taurus, UniProt P08487); assay: PLC-inhibiting activity ([3H]PIP2 hydrolysis); assay type: biochemical; conditions: test peptide concentration 220 μM; PI-PLC-γ1 from bovine thymus; 37° C., 10 minutes
T1 construct: A sample of PLC-γ1 was prepared from bovine thymus; from tissue; host or cells: bovine thymus
T1 sequence (P08487 1-1291): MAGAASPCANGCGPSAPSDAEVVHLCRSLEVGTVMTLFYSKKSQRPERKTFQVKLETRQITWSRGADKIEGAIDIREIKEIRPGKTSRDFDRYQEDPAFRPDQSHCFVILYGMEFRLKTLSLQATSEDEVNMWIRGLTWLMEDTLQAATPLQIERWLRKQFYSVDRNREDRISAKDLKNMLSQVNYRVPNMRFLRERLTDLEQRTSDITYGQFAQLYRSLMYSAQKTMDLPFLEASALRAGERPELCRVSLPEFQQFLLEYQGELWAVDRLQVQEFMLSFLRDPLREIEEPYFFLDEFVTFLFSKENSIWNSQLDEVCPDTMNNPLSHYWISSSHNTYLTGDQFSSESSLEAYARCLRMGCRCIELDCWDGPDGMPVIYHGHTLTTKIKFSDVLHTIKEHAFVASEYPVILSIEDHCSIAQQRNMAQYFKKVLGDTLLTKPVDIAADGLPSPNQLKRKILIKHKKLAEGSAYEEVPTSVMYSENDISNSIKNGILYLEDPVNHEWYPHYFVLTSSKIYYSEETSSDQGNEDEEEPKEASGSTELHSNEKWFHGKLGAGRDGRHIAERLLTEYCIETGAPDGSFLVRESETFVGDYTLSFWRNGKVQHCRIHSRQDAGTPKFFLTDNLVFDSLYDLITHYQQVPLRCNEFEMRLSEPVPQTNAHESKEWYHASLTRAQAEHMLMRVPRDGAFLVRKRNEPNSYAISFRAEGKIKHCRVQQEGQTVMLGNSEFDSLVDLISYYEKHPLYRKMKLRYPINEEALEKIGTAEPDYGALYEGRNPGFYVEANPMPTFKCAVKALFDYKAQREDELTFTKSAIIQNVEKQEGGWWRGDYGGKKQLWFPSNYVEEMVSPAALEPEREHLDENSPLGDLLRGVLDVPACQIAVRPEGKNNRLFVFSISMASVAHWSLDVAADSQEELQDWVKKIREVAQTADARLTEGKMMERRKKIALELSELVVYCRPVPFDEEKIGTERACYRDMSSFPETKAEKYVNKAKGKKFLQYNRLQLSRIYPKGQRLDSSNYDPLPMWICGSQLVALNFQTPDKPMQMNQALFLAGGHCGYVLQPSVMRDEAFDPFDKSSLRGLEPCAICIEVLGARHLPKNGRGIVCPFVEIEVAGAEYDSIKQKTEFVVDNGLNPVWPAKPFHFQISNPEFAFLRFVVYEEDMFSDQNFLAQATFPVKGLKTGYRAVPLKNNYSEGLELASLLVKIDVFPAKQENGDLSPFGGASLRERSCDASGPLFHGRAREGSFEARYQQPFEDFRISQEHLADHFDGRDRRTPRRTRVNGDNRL
Description: A sample of PLC-γ1 was prepared from bovine thymus according to the method described in Y. Homma et al., Biochem.J., 269, 13 (1990).
A solution having the composition shown in Table 2 was prepared on ice and the reaction was initiated by heating it to 37° C. After incubation for 10 minutes, 2 ml of a chloroform-methanol (2:1, V/V) mixed solution was added to stop the reaction. The produced inositol phosphate was extracted with 0.5 ml of 1N hydrochloric acid. The extract was separated into two liquid phases by centrifugation (2000×g, 3 minutes) and the amount of ^3 H in the supernatant (0.7 ml) was measured with a scintillation counter. […]
Percent inhibition (X) was calculated from the following equation.
where A is the obtained value of specific radioactivity, B is the value of specific radioactivity when the same amount of water was added instead of an aqueous solution of a test peptide, and C is the value of specific radioactivity when the same amount of water was added instead of a sample and an aqueous solution of a test peptide.

[2] = system: KMS-4 cells; assay: Cell proliferation-inhibiting activity (BrdU incorporation); assay type: cell-based; conditions: test peptide concentration 6 μM, incubation for 17 hours
Description: The cell proliferation-inhibiting activity of the test peptides was determined using a cell proliferation-detecting kit available from Amersham in the following manner. KMS-4 cells (M. Nanba et al., International Journal of Cancer, 32, 697 (1983)) were added to a DMEM medium containing a 10% fetal calf serum (available from Nissui Pharmaceutical) and the cell concentration was adjusted to 1-2×10^4 cells/ml. The resulting cell suspension (1 ml) was then placed in each well of a 24-well plate (available from Corning) and incubated in a CO2 incubator (37° C., 5% CO2) for 2 days. Subsequently, the medium was replaced with a fresh DMEM medium containing a 10% fetal calf serum, and a test peptide was added, followed by incubation for 17 hours. […] The number of cells which incorporated BrdU and the total number of cells were counted within one visual field (about 200 cells) under microscopic examination and the percentage (%) of the stained cell counts per visual field was calculated. […] Cell proliferation-inhibiting activity was expressed by percent cell proliferation inhibition (X) which was calculated from the following equation. […]

[3] = system: Proteus vulgaris ATCC6897; assay type: cell-based; conditions: ATCC6897, pH 7
Description: Antimicrobial activity was determined by an agar dilution method using a medium consisting of Bacto-tryptone (available from Difco) (3 g/l), meat extract (1 g/l), glucose (1 g/l) and agar (16 g/l) (pH 7.0).

inhibition at 220 µM [1]: 56%
minimum inhibitory concentrations (MIC) [3]: 166 µg/mL (≈ 91 µM)
SMILES: CCCCCCCC(=O)N[C@H]1CSSC[C@@H](C(N)=O)NC(=O)[C@H](C(C)C)NC(=O)[C@@H]2CCCN2C(=O)[C@H](Cc2ccc(O)cc2)NC(=O)[C@H](CCCNC(=N)N)NC(=O)[C@H](CC(C)C)NC(=O)[C@H](CCCNC(=N)N)NC(=O)[C@H](CCSC)NC(=O)[C@H](CCCCN)NC(=O)[C@H](CCCNC(=N)N)NC(=O)[C@H](Cc2ccc(O)cc2)NC(=O)[C@H](CC(C)C)NC1=O [Compound (I-4)] (Octanoyl-CLYRKMRLRYPVC-NH2; disulfide 1-13)
Inhibition (%) of cell proliferation [2]: 61%
